By IC50 is commonly meant the concentration that inhibits the measured activity by half.

This assay has as its target T1, soluble epoxide hydrolase (sEH) (Homo sapiens, UniProt P34913).
T1 construct: gene EPHX2; His-tagged sEH protein (used in the selection)
T1 sequence (P34913 1-555): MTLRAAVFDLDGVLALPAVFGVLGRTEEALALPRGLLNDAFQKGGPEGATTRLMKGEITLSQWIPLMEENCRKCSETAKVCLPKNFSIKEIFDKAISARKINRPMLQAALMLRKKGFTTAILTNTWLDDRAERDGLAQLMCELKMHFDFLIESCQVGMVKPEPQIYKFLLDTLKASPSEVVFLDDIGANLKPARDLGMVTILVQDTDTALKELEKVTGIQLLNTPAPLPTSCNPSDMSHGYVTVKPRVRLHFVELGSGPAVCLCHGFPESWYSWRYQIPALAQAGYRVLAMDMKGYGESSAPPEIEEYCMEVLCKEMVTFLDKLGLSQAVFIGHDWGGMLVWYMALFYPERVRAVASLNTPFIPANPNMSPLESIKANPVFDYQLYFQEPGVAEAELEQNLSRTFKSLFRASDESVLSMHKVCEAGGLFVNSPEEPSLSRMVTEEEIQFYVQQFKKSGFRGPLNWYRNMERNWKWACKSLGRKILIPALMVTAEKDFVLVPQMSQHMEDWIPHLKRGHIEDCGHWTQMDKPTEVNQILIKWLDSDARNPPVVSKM
The assay is described as follows: biochemical sEH inhibition assay of off-DNA compound (methyl in place of DNA linker); building-block combination enriched in affinity selection.

Consider `CN(CCn1cccn1)C(=O)c1ccc(-c2cccc(C(=O)NC3CCCCC3)c2)nc1` [compound 12], for which the IC50 came to 2 nM.

The values are drawn from PMC4603778, “Encoded Library Synthesis Using Chemical Ligation and the Discovery of sEH Inhibitors from a 334-Million Member Library” (Scientific Reports, 2015).
